The results in this text go back to US6812218B2, “Lipid derivatives of polythiourea” (Gencell S.A., priority 2001, dated 2004).

In one data set the test system is plasmid pXL3031. The data set is described as follows: ethidium bromide fluorescence test of nucleic acid compaction. In kind it is binding. The settings on record: conditions identical to the DT-3TU mixtures, 150 mM sodium chloride. As for the experimental part: In the text which follows, the nucleic acid used was the plasmid pXL3031 described in the publication Gene Therapy (1999) 6, pp. 1482-1488, which contained the luc gene encoding luciferase under the control of the cytomegalovirus CMV E/P promoter. This plasmid is represented in FIG. 7. Its size is 3671 bp. The plasmid solution used was diluted to 1.262 g/l in water for injection.
The nucleic acid was brought into contact with increasing quantities of DT-3TU (12), by equivolumetric mixing of lipid solutions of various titers in the solutions of nucleic acid. Samples of 800 μl of nucleic acid complexes with a concentration of 0.01 μg/ml were thus prepared in a 150 mM sodium chloride solution with increasing quantities of DT-3TU (12).
In the same manner, a control was prepared by bringing the nucleic acid into contact with increasing quantities of EPC (see FIG. 1) or of DPPC (see FIG. 2), by equivolumetric mixing of lipid solutions of various titers in the solutions of nucleic acid. Samples of 800 μl of nucleic acid complexes with a concentration of […] were thus prepared in a 150 mM sodium chloride solution with increasing quantities of EPC or of DPPC (FIGS. 1 and 2 respectively).
The ethidium bromide fluorescence was measured over time (measured at 20° C.) using a FluoroMax-2 (Jobin Yvon-Spex) with excitation and emission wavelengths of 260 nm and 590 nm respectively. […]

Data set [1] deals with HeLa cells. The data set is described as follows: in vitro transfection, luciferase activity. The note with it: 10% FCS versus without serum. In kind it is cell-based, human. As for the experimental part:
This study was carried out for lipoplexes comprising various quantities of DT-3TU: 1.5 or 5 or 10 or 15 or 20 nmol of DT-3TU/μg of DNA. Each of these conditions was tested with and without fetal calf serum (“+Serum” or “−Serum”).
HeLa cells (American type Culture Collection (ATCC) Rockville, Md., USA) derived from a carcinoma of human cervical epithelium, were cultured in the presence of an MEM (“minimum essential medium”) type medium with addition of 2 mM L-glutamine, 50 units/ml of penicillin and 50 units/ml of streptomycin. The medium and the additives were from Gibco-BRL Life Technologies (Gaithersburg, Md., USA). The cells were cultured in flasks at 37° C. and at 5% carbon dioxide in an incubator.
one day before the transfection, the HeLa cells were transferred into […] with a cell number of 30,000 to 50,000 per well. These dilutions represent approximately 80% confluence after 24 hours. […]
Briefly, the transfected cells were washed twice with 500 μl of PBS (phosphate buffer) and then lysed with 250 μl of reagent (Promega cell culture lysis reagent, of the Luciferase Assay System kit). An aliquot of 10 μl of supernatant of the lysate centrifuged (12,000×g) for 5 minutes at 4° C. was measured with a Wallace Victor 2 luminometer (1420 Multilabel couter). […]

Data set [2] has as its system HeLa cells. Briefly: toxicity toward the cells, protein level after transfection. The format is cell-based, human. The settings on record: lipoplexes with 0.75 to 20 nmol of DT-3TU per μg of DNA. As for the experimental part: The protein level was measured after transfection. The transfection protocol was identical to that described in Example 8.
Briefly, the transfected cells were washed twice with 500 μl of PBS (phosphate buffer) and then lysed with 250 μl of reagent (Promega cell culture lysis reagent, of the Luciferase Assay System kit). An aliquot of 50 μl of supernatant of the lysate centrifuged (12,000×g) for 5 minutes at 4° C. was transferred into a tube in the presence of 50 μl of 0.1 M iodoacetamide, 0.1 M hydrochloric acid tris at pH 8.2 and left for 1 hour at 37° C. 20 μl of the preceding solutions were deposited in a 96-well plate and 200 μl of “BCA protein assay” reagent (Pierce, Montluson, France) were added. The plate was then centrifuged at 2500 revolutions/min and then incubated at 37° C. for 30 minutes. In parallel, a bovine serum albumin (BSA) range was prepared in order to correlate the absorbance value obtained for the samples with a quantity of protein present in the sample.

Data set [3] is described as follows: size of the lipid/DNA particles. In kind it is physicochemical. The settings on record: without lipid-PEG. From the text:
The use of cholesterol-PEG in the DT-3TU/DPPC formulations has the advantage of permitting the reduction of the particles to such a quantity of lipid that, in the case of the absence of lipid-PEG, would lead to aggregation. […] In order to obtain particles of this size it is necessary to use at least 40 nmol of the lipid DT-3TU/μg of DNA. Thus, the use of lipid-PEG in the formulations of the lipid DT-3TU has the advantage of reducing the quantity of DT-3TU necessary to compact the DNA and form particles whose size is smaller than 500 nm

For data set [4], the system named is tibial and cranial muscles. The data set is described as follows: in vivo muscle transfection, luciferase expression. Also noted: species or system mice C57bl/6. The settings on record: intramuscular, 3 μg of DNA, 96 hours after injection. As for the experimental part:
Muscles samples were taken 96 hours after the injection and the level of expression for luciferase was measured using a luminometer (wallace).
Complexes containing increasing quantities of DT-3TU lipid per μg of DNA were injected in both tibial and cranial muscles of the mice, to which electric pulsations were or were not applied (Bureau, M et al, BBA 2000).
The mice C57bl/6 had undergone previously anaesthetic with a mixture of Ketamin/Xylazine. The injection was or was not followed by the application of transcutaneous electric pulsations using electrodes placed in both ends of the muscle (Bureau, M et al, BBA 2000).
96 hours after the injection, the mice underwent euthanasia, muscles samples were taken and ground in 1 ml buffer lyse solution. After centrifugation (10 min., 12000 rpm, 4° C.), supernatant (10 μl) was taken and placed in a 96 well plate to read the luciferase after adding 50 μl of luciferase substrate. The level of luminescence was read in the supernatant using a luminometer (Wallace, Victor).

SMILES strings stand for the structures. Where only a bound is given, the exact number is not on record here.

On to `CCCCCCCCCCCCCCCC(=O)OC[C@H](COP(=O)([O-])OCC[N+](C)(C)C)OC(=O)CCCCCCCCCCCCCCC` [DPPC, 1,2-dipalmitoyl-sn-glycero-3-phosphocholine], for which the “decrease in fluorescence, lipid alone (control)” value with plasmid pXL3031 is on record as “about 5%”.
Regarding `CCCCCCCCCCCCCCN(CCCCCCCCCCCCCC)C(=O)CCC(=O)NCCNC(=S)NCCNC(=S)NCCNC(=S)NC` [DT-3TU, 3-(2-{3-[2-(3-{2-[3-(ditetradecylcarbamoyl)propionylamino]ethyl}thioureido)ethyl]thioureido}ethyl)-1-methylthiourea], the “effect of the presence of serum on transfection” value in the data set on HeLa cells [1] is “weak inhibition of transfection”. Moreover, the “toxicity toward the cells” value in the data set with HeLa cells [2] is given as “no toxicity was observed”. For the same compound, the “quantity of lipid necessary to obtain particles inferior to 500 nm” value in data set [3] is reported as “at least 40 nmol of the lipid DT-3TU/μg of DNA”. Further, the “level of expression (luciferase) versus background noise of control muscle” value in data set [4] is given as > 5.0×10^4. The “transfection of muscle tissues” value in data set [4] (20 and 40 nmol of DT-3TU lipid per μg of DNA, with or without electric pulsations) is recorded as “significant level of transfection”.
